The record followed here is patent US20120165331A1, “Di/tri-aza-spiro-C9-C11alkanes” (priority 2010, published 2012).

SMILES strings stand for the structures.

In general, inhibition refers to the percentage by which the read-out fell short of the control. By Ki is commonly meant the equilibrium dissociation constant of an inhibitor or competing ligand from its target.

One test deals with T1, human orexin 1 receptor (Homo sapiens, UniProt O43613).
T1 construct: expressed in transfected cells
T1 sequence (O43613 1-425): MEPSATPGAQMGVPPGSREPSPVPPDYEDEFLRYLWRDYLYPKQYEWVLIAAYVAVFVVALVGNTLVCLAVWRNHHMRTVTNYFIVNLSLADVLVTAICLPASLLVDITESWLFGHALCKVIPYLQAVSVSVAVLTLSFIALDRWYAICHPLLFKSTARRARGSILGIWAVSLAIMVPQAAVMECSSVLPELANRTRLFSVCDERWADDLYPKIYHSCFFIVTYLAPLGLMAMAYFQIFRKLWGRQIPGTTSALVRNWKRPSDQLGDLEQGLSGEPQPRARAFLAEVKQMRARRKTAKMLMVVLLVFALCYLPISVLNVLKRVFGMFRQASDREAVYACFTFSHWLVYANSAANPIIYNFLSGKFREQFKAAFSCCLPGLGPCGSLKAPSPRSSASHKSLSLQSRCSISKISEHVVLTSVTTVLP
Briefly: Calcium accumulation in cells (FLIPR), antagonism of orexin A, human orexin 1 receptor. The format is cell-based. Conditions: for inhibition at 10 µM: measured at a concentration of 10 μM of compound, read-out: FLIPR hOx1R % inhibition; for Ki: calcium accumulation, antagonism of orexin A, Cheng-Prusoff corrected, read-out: FLIPR hOx1R Ki.

Another test addresses T2, human orexin 2 receptor (Homo sapiens, UniProt O43614).
T2 construct: expressed in transfected cells
T2 sequence (O43614 1-444): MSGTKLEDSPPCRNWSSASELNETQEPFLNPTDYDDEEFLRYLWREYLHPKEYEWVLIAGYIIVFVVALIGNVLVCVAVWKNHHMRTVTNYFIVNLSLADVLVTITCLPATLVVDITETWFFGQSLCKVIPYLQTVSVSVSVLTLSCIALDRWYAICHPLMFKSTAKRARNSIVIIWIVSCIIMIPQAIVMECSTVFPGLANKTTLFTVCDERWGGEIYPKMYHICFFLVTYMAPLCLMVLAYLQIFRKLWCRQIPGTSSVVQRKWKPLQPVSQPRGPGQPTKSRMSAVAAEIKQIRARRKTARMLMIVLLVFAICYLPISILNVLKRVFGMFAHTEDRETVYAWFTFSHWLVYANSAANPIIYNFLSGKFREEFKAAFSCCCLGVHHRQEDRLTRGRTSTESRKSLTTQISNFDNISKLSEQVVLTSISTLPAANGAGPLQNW
Briefly: Calcium accumulation in cells (FLIPR), antagonism of orexin A, human orexin 2 receptor. The format is cell-based. The settings on record: for inhibition at 10 µM: measured at a concentration of 10 μM of compound, read-out: FLIPR hOx2R % inhibition; for Ki: calcium accumulation, antagonism of orexin A, Cheng-Prusoff corrected, read-out: FLIPR hOx2R Ki.

With `O=C1N(Cc2c[nH]c3ccccc23)CCC12CCN(c1cc3c(nn1)CCOC3)C2` (centres unmarked) [Example 5.24, 2-((1H-indol-3-yl)methyl)-7-(7,8-dihydro-5H-pyrano[4,3-c]pyridazin-3-yl)-2,7-diazaspiro[4.4]nonan-1-one], the inhibition at 10 µM at human orexin 1 receptor is 25%; on human orexin 2 receptor it was 54%.
For `Cc1cccc(N2CCC3(CCN(Cc4c[nH]c5ccccc45)C3=O)C2)n1` (centres unmarked) [Example 5.27, 2-((1H-indol-3-yl)methyl)-7-(6-methylpyridin-2-yl)-2,7-diazaspiro[4.4]nonan-1-one], the Ki on human orexin 1 receptor is 2390 nM; on human orexin 2 receptor, 298 nM.
Regarding `O=C1N(Cc2c[nH]c3ccccc23)CCC12CCN(c1ccc(-n3ccnc3)nn1)C2` (centres unmarked) [Example 5.20, 7-(6-(1H-imidazol-1-yl)pyridazin-3-yl)-2-((1H-indol-3-yl)methyl)-2,7-diazaspiro[4.4]nonan-1-one], the inhibition at 10 µM was found to be 34% at human orexin 1 receptor and 33% at human orexin 2 receptor.
Regarding `COc1cc(C)nc(N2CCC3(CCCN(Cc4c[nH]c5ncccc45)C3=O)C2)n1` (centres unmarked) [Example 7.13, 7-((1H-pyrrolo[2,3-b]pyridin-3-yl)methyl)-2-(4-methoxy-6-methylpyrimidin-2-yl)-2,7-diazaspiro[4.5]decan-6-one], the Ki at human orexin 1 receptor was 299 nM; at human orexin 2 receptor it was 115 nM.
The corresponding values for `Cn1c(N2CCC3(CCN(Cc4ccccc4-c4ccccc4)C3=O)CC2)nc2ccccc21` [Example 3.8, 2-(Biphenyl-2-ylmethyl)-8-(1-methyl-1H-benzo[d]imidazol-2-yl)-2,8-diazaspiro[4.5]decan-1-one] are 506 nM and 644 nM.
For the compound `CCc1cc(-c2nn(C)nc2CN2CCNC3(CCN(c4nc(C)cc(C)n4)CC3)C2=O)ccn1` [Example 1.75, 9-(4,6-dimethyl-pyrimidin-2-yl)-4-((5-(2-ethyl-pyridin-4-yl)-2-methyl-2H-1,2,3-triazol-4-yl)methyl)-1,4,9-triazaspiro[5.5] undecan-5-one], the inhibition at 10 µM was less than 10% at human orexin 1 receptor and 35% at human orexin 2 receptor.
Turning to `Cc1cc(C)nc(N2CCC3(CC2)NCN(Cc2c[nH]c4ccccc24)C3=O)n1` [Example 4.1, 3-((1H-indol-3-yl)methyl)-8-(4,6-dimethylpyrimidin-2-yl)-1,3,8-triazaspiro[4.5]decan-4-one], the inhibition at 10 µM on human orexin 1 receptor turned out to be 12%. For the same compound, the Ki at human orexin 2 receptor was determined as 2120 nM.
Turning to `COc1cccc(-c2nn(C)nc2CN2CCCC3(CCN(c4nccc(OC)n4)C3)C2=O)c1` (centres unmarked) [Example 7.7, 7-((5-(3-Methoxyphenyl)-2-methyl-2H-1,2,3-triazol-4-yl)methyl)-2-(4-methoxypyrimidin-2-yl)-2,7-diazaspiro[4.5]decan-6-one], the figures for the Ki on human orexin 1 receptor and on human orexin 2 receptor were 537 nM and 366 nM, respectively.
Regarding `Cc1cc(C)nc(N2CCC3(CC2)NCCN(Cc2nn(C)cc2-c2cccc(-c4nnc(C)o4)c2)C3=O)n1` [Example 1.59, 9-(4,6-Dimethyl-pyrimidin-2-yl)-4-((1-methyl-4-(3-(5-methyl-1,3,4-oxadiazol-2-yl)phenyl)-1H-pyrazol-3-yl)methyl)-1,4,9-triazaspiro[5.5] undecan-5-one], the inhibition at 10 µM on human orexin 1 receptor was found to be 37%. Further, the Ki at human orexin 2 receptor worked out at 252 nM.
Take `Cc1ccc(C)c(CN2C(=O)COCC23CCN(c2cncc(C)n2)CC3)c1` [Example 8.13, 1-(2,5-Dimethylbenzyl)-9-(6-methylpyrazin-2-yl)-4-oxa-1,9-diazaspiro[5.5]undecan-2-one]: the inhibition at 10 µM on human orexin 1 receptor was less than 10%. The Ki at human orexin 2 receptor was found to be 405 nM.
The corresponding values for `Cc1cc(C)nc(N2CCC3(CC2)NCCN(Cc2nn(C)cc2-c2cccc(C#N)c2)C3=O)n1` [Example 1.44, 3-(3-((9-(4,6-Dimethylpyrimidin-2-yl)-5-oxo-1,4,9-triazaspiro[5.5]undecan-4-yl)methyl)-1-methyl-1H-pyrazol-4-yl)benzonitrile] are 12% and 1490 nM.
`Cc1cncc(N2CCC3(CC2)COC(=O)N3Cc2c[nH]c3ccccc23)n1` [Example 8.23, 1-((1H-Indol-3-yl)methyl)-8-(6-methylpyrazin-2-yl)-3-oxa-1,8-diazaspiro[4.5]decan-2-one]: the inhibition at 10 µM is less than 10% on human orexin 1 receptor and 20% on human orexin 2 receptor.
`COc1ccnc(N2CCC3(CCCN(Cc4ccccc4-c4nc(C)no4)C3=O)C2)n1` (centres unmarked) [Example 7.5, 2-(4-Methoxypyrimidin-2-yl)-7-(2-(3-methyl-1,2,4-oxadiazol-5-yl)benzyl)-2,7-diazaspiro[4.5]decan-6-one]: the Ki at human orexin 1 receptor was 981 nM; at human orexin 2 receptor, 221 nM.
For `O=C1N(Cc2c[nH]c3ccccc23)CCC12CCN(c1nc3cc(Cl)ccc3o1)C2` (centres unmarked) [Example 5.15, 2-((1H-Indol-3-yl)methyl)-7-(5-chlorobenzo[d]oxazol-2-yl)-2,7-diazaspiro[4.4]nonan-1-one], the values for the inhibition at 10 µM at human orexin 1 receptor and at human orexin 2 receptor were 29% and 37%, respectively.
The corresponding values for `Cc1nc(N2CCOCC2)cc(N2CCC3(CCN(Cc4c[nH]c5ccccc45)C3=O)C2)n1` (centres unmarked) [Example 5.26, 2-((1H-indol-3-yl)methyl)-7-(2-methyl-6-morpholinopyrimidin-4-yl)-2,7-diazaspiro[4.4]nonan-1-one] are 37% and 47%.
As for `COc1ccnc(N2CC[C@]3(CCN(Cc4c[nH]c5ccccc45)C3=O)C2)n1` [Example 5.3, (S)-2-((1H-indol-3-yl)methyl)-7-(4-methoxypyrimidin-2-yl)-2,7-diazaspiro[4.4]nonan-1-one], the results for the Ki on human orexin 1 receptor and on human orexin 2 receptor were 2640 nM and 103 nM, respectively.
For the compound `O=C1N(Cc2c[nH]c3ccccc23)CCC12CCN(c1cnc3ccccc3n1)C2` (centres unmarked) [Example 5.5, 2-((1H-Indol-3-yl)methyl)-7-(quinoxalin-2-yl)-2,7-diazaspiro[4.4]nonan-1-one], the Ki at human orexin 1 receptor amounted to 1230 nM; at human orexin 2 receptor, 430 nM.
As for `COc1nc(C)cc(N2CCC3(CCN(Cc4c[nH]c5ccccc45)C3=O)C2)n1` (centres unmarked) [Example 5.36, 2-((1H-indol-3-yl)methyl)-7-(2-methoxy-6-methylpyrimidin-4-yl)-2,7-diazaspiro[4.4]nonan-1-one], the inhibition at 10 µM on human orexin 1 receptor stood at 18%. Also, at human orexin 2 receptor, the Ki was 927 nM.
For `COc1ccnc(N2CCC3(CCN(Cc4c[nH]c5ncccc45)C3=O)C2)n1` (centres unmarked) [Example 5.11, 2-((1H-Pyrrolo[2,3-b]pyridin-3-yl)methyl)-7-(4-methoxypyrimidin-2-yl)-2,7-diazaspiro[4.4]nonan-1-one], the results for the inhibition at 10 µM on human orexin 1 receptor and at human orexin 2 receptor were less than 10% and 26%, respectively.
For `COc1ccnc(N2CCC3(CCN(Cc4ccccc4-c4nc(C)no4)C3=O)CC2)n1` [Example 3.17, 8-(4-Methoxy-pyrimidin-2-yl)-2-[2-(3-methyl-[1,2,4]oxadiazol-5-yl)-benzyl]-2,8-diaza-spiro[4.5]decan-1-one], the inhibition at 10 µM on human orexin 1 receptor was found to be 37%. The Ki at human orexin 2 receptor stood at 298 nM.
As to `Cc1cc(N2CCOCC2)nc(N2CCC3(CCN(Cc4c[nH]c5ccccc45)C3=O)C2)n1` (centres unmarked) [Example 5.25, 2-((1H-indol-3-yl)methyl)-7-(4-methyl-6-morpholinopyrimidin-2-yl)-2,7-diazaspiro[4.4]nonan-1-one], the inhibition at 10 µM at human orexin 1 receptor was determined as 71%; at human orexin 2 receptor, 66%.
For the compound `Cc1noc(-c2ccnc(N3CCC4(CCN(Cc5c[nH]c6ccccc56)C4=O)C3)c2)n1` (centres unmarked) [Example 5.34, 2-((1H-indol-3-yl)methyl)-7-(4-(3-methyl-1,2,4-oxadiazol-5-yl)pyridin-2-yl)-2,7-diazaspiro[4.4]nonan-1-one], the figures for the Ki on human orexin 1 receptor and on human orexin 2 receptor were 2150 nM and 1470 nM, respectively.
`Cc1cc(C)nc(N2CCC3(CC2)OCCN(Cc2nocc2-c2ccccc2)C3=O)n1` [Example 2.25, 9-(4,6-dimethylpyrimidin-2-yl)-4-((4-phenylisoxazol-3-yl)methyl)-1-oxa-4,9-diazaspiro[5.5]undecan-5-one]: the Ki is 2680 nM at human orexin 1 receptor and 374 nM at human orexin 2 receptor.
Turning to `COc1ccnc(N2CCC3(CCN(Cc4c[nH]c5ncccc45)C3=O)CC2)n1` [Example 3.15, 8-(4-Methoxy-pyrimidin-2-yl)-2-(1H-pyrrolo[2,3-b]pyridin-3-ylmethyl)-2,8-diaza-spiro[4.5]decan-1-one], the inhibition at 10 µM at human orexin 1 receptor worked out at 26%. Besides, the Ki at human orexin 2 receptor is 637 nM.
For `Cc1cc(C)nc(N2CCC3(CCN(Cc4ccc5[nH]ccc5c4)C3=O)CC2)n1` [Example 3.23, 2-((1H-indol-5-yl)methyl)-8-(4,6-dimethylpyrimidin-2-yl)-2,8-diazaspiro[4.5]decan-1-one], the inhibition at 10 µM on human orexin 1 receptor stood at 10%. In addition, on human orexin 2 receptor, the Ki is 2390 nM.
